Measurements: patent US5484780A, “Angiotensin II antagonists” (Eli Lilly and Company, priority 1994, dated 1996)

Experiments:
[1] = target: T1, angiotensin-induced vasoconstriction (rabbit aorta) (Oryctolagus cuniculus, UniProt P34976); experiment: Rabbit Aorta Test System: antagonism of angiotensin II contraction of aortic rings; parameters: species or system New Zealand white rabbits; details: contraction to AII 10^-10 to 10^-7 M, 30 minutes incubation with compound; pA2 = -log KB
T1 construct: The thoracic aortas were removed and cleaned of excess fat and connective tissue; from tissue; host or cells: thoracic aorta rings of New Zealand white rabbits (animals from Hazelton)
T1 sequence (P34976 1-359): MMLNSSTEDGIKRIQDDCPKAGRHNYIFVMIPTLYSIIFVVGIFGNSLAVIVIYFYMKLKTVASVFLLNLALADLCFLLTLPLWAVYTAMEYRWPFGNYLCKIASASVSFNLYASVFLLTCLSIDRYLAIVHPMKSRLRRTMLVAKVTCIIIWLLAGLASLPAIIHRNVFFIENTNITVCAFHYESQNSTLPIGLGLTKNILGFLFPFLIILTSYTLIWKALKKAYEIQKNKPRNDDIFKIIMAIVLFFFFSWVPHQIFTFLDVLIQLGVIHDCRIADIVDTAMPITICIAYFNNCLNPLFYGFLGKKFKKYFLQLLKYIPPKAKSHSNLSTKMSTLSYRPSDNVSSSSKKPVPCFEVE
Method: (§1) As previously discussed, the compounds of Formula I are potent effective antagonists of angiotensin II. The ability of representative compounds of Formula I to block angiotensin II receptor binding was determined using the adrenal glomerulosa assay. The ability to antagonize angiotensin-induced vasoconstriction was evaluated in the rabbit aorta test system.
New Zealand white rabbits (Hazelton, 2-3 kg) were sacrificed by cervical dislocation. The thoracic aortas were removed and cleaned of excess fat and connective tissue. Rings of tissue (3 mm wide) were mounted in 10 ml tissue baths between 2 L-shaped stainless steel hooks. The lower hook was attached to a stationary rod. The upper hook was attached to a force displacement transducer (Grass model FT.03). The bath chambers were maintained at 37° C., aerated with 95% 02 /5% C02, and contained physiological solution of the following composition (mM): NaCl, 117; glucose, 5.6; NaH2 PO4, 1.0; MgS04, 0.7; KCl, 5.2; CaCl2, 1.8; NaHCO3, 26; and phentolamine HCl, 0.003.
Rings were equilibrated for 1 hour with 2 g of tension. During the equilibration period, the tissues were washed by overflow every 15 minutes. Rings were then exposed to 10^-8 M angiotensin II (AII) and were allowed to contract until a steady state was reached. Tissues were then washed every 15 minutes for 1 hour. This was repeated every hour until the AII response stabilized. A cumulative concentration response curve to AII (10^-10 to 10^-7 M) was then obtained. At the conclusion of the concentration response curve, tissues were washed every 2 minutes until baseline tension was reached, then every 15 minutes for 30 minutes. Compounds were added in a volume of 10 μl DMSO and allowed to incubate for 30 minutes before repeating the concentration response curve to AII. Contractions to AII were expressed as a percent of the maximum contraction obtained in the control curve (the first AII concentration response curve). EC50 's (concentration that contracted the tissues to 1/2 the control maximum) for each curve were calculated using a 4 parameter logistics model (NonLin, SAS Institute). Potency data for each compound tested are expressed as the pA2 (defined as-log KB, where KB =[molar concentration of antagonist]/[(EC50 AII with antagonist/EC50 AII without antagonist)-1]).

[2] = target: angiotensin II receptor (adrenal membranes); experiment: Adrenal Glomerulosa Test System: binding of I^125-angiotensin II to adrenal membranes; details: displacement of 0.1 nM I^125-angiotensin II, rat adrenal membranes, 90 minutes, room temperature; KI by Cheng Prusoff equation; read-out: Adrenal Glomulosa (KI)
Method: as §1
Binding of I^125 -angiotensin II to adrenal membranes was routinely carried out in 96-well filtration plates. Adrenal membranes were prepared from the capsular portion (glomerulosal layer attached) of rat adrenal glands by differential centrifugation. Briefly, capsules were homogenized in a solution containing sucrose, 250 mM; MgCl2, 1 mM; and tris, 5 mM at pH 7.5 and 4° C. using a polytron at setting 5 for 20 seconds. The homogenate was stirred, gently, for 15 minutes at 4° C. and then centrifuged 10 minutes, at 1000×g, 4° C. The supernatant was centrifuged 30 minutes, at 30,000×g, 4° C., and the resulting pellet resuspended in 50 mM tris. Membrane preparations were stored in aliquots at -70° C. until used. Binding of I^125 -angiotensin II to adrenal membranes was performed at room temperature for 90 minutes in 96-well plates containing a hydrophilic polyvinylidene fluoride membrane (0.45 μm, Millipore-GV multiscreen). Each 250 μincubate contained the following (final concentration): tris, 50 mM; NaCl, 120 mM; MgCl2, 5 mM; dithiothrietol 1 mM; bovine serum albumin, 0.05%; I^125 -angiotensin II, 0.1 nM; and adrenal membrane protein, 8-15 μg. Antagonists were added in concentrations from 10 nM to 100 μM. Non-specific binding was measured in the presence of 0.1 μM Sar1, Ile8 angiotensin II.
Binding was terminated by vacuum filtration. Receptor-ligand complex trapped on filters was washed 3 times with 300 μl ice-cold wash solution (tris, 50 mM; NaCl, 120 mM; MgCl2, 5 mM; dithiothrietol, 1 mM). Filter discs were dried, punched out and counted in a gamma counter at 52% efficiency. Specific binding represented 96% of total binding (approximately 150 fmol angiotensin II/mg protein). The molar concentration (IC50) of the inhibitor that displaced 50% of the binding of I^125 angiotensin II for each compound was calculated using a 4 parameter logistics model (NonLin, SAS Institute). Data are expressed as KI calculated using the Cheng Prusoff equation. See Cheng et al. Biochem. Pharmacol. 22: 3099 (1973).

| Structure (SMILES) | Kb [1] | Ki [2] |
| --- | --- | --- |
| CCCCCCC(C(=O)NC(C)(C)CO)n1cnc(NC(=O)c2ccccc2S(=O)(=O)O)c1 (stereo not drawn) [Example 4, N-[2-(1-Hydroxy-2-methyl)propyl]-2-[4-(2-sulfobenzoyl)amino-1H-imidazol-1-yl]octanoamide] | 1 µM | 12.1 µM |
| CCCCCCC(C(=O)NCC)n1cnc(NC(=O)c2ccccc2S(=O)(=O)O)c1 (stereo not drawn) [Example 1, N-Ethyl-2-[4-(2-sulfobenzoyl)amino-1H-imidazol-1-yl]octanoamide] | 2 µM | 10.3 µM |
| CCCCCCC(C(=O)NCC(F)(F)F)n1cnc(NC(=O)c2ccccc2S(=O)(=O)O)c1 (stereo not drawn) [Example 3, N-(2,2,2-Trifluoroethyl)-2-[4-(2-sulfobenzoyl)amino-1H-imidazol-1-yl]octanoamide] | 3.98 µM | 9.6 µM |
| CCCCCCC(C(=O)O)n1cnc(NC(=O)c2cccc(O)c2S(=O)(=O)O)c1 (stereo not drawn) [Example 10, 2-[4-(3-Hydroxy-2-sulfobenzoyl)amino-1H-imidazol-1-yl]octanoic acid] | 0.0631 µM | 2.93 µM |
| CCCCCCC(C(=O)Nc1ccccc1O)n1cnc(NC(=O)c2ccccc2S(=O)(=O)O)c1 (stereo not drawn) [Example 8, N-(2-Hydroxyphenyl)-2-[4-(2-sulfobenzoyl)amino-1H-imidazol-1-yl]octanoamide] | 1.58 µM | 13 µM |
| CCCCCCC(C(=O)Nc1ccccc1C(=O)O)n1cnc(NC(=O)c2ccccc2S(=O)(=O)O)c1 (stereo not drawn) [Example 9, N-(2-Carboxyphenyl)-2-[4-(2-sulfobenzoyl)amino-1H-imidazol-1-yl]octanoamide] | 0.251 µM | 12.4 µM |
| CCCCCCC(C(=O)N1CCNC1=O)n1cnc(NC(=O)c2ccccc2S(=O)(=O)O)c1 (stereo not drawn) [Example 5, 2-[[[1-[1-[(2-oxo-1-imidazolidinyl)carbonyl]heptyl]-1H-imidazol-4-yl]amino]carbonyl]benzenesulfonic acid] | 0.501 µM | 178 µM |
| CCCCCCC(C(=O)Nc1ccccn1)n1cnc(NC(=O)c2ccccc2S(=O)(=O)O)c1 (stereo not drawn) [Example 7, N-(2-Pyridyl)-2-[4-(2-sulfobenzoyl)amino-1H-imidazol-1-yl]octanoamide] | 1.58 µM | 6.8 µM |
| CCCCCCC(C(=O)NCCC)n1cnc(NC(=O)c2ccccc2S(=O)(=O)O)c1 (stereo not drawn) [Example 2, N-Propyl-2-[4-(2-sulfobenzoyl)amino-1H-imidazol-1-yl]octanoamide] | 0.794 µM | 8.2 µM |
